This is an account of results in PubChem BioAssay AID806 (SRMLSC, 2007).

The assay concerns virus-infected cells, CPE inhibition, dose response. Description: PubChem AID 806. Conditions: for EC90: measured here: EC90 CPE inhibition; for CC50: measured here: cytotoxicity, cell viability IC50.

The source made the active and inactive calls. No rule for the calls is given here.

Usually EC50 stands for the concentration that produces a half-maximal response. One may read the EC90 as the concentration needed for an effect of 90%. Higher therefore signals weaker potency. As a reminder, the CC50 is the concentration that lowers cell viability or growth by half. The low end stands for harm at low concentration, the high end for better tolerance by the cells. Turning to `CC1(C)Cc2c(c(N3CCOCC3)nc3sc4c(=O)[nH]cnc4c23)CS1`, the EC50 was > 60 µM (inactive), the EC90 was over 60 µM and the CC50 was over 60 µM.

For the molecule `CCSc1nnc(-c2ccncc2)o1`, the EC50 is > 60 µM (inactive), the EC90 is over 60 µM and the half-maximal cytotoxic concentration (CC50) was over 60 µM.

`COc1ccc(C(=O)C(CN2CCOCC2)c2ccccc2)cc1` (configuration not stated): the EC50 is > 60 µM (inactive), the EC90 was over 60 µM and the CC50 is over 60 µM.

Consider `CCSc1nnc(-c2ccc(OC)cc2)o1`, for which the EC50 was > 60 µM (inactive), the EC90 is over 60 µM and the CC50 was over 60 µM.

In the case of `N#CCCCSc1nnc(-c2ccccn2)o1`, the EC50 was > 60 µM (inactive), the EC90 is over 60 µM and the CC50 was over 60 µM.

For `O=C1NCCCc2c1oc1cc(Br)c(O)c(Br)c21`, the EC50 was > 60 µM (inactive), the EC90 was over 60 µM and the CC50 was over 60 µM.

As to `COc1ccc(OC)c(-n2c(SCC(=O)NCc3ccco3)nnc2-c2c[nH]c3ccccc23)c1`, the EC50 is > 60 µM (inactive), the EC90 was over 60 µM and the CC50 is over 60 µM.

Turning to `CCOC(=O)c1cccc(NC(=O)CCS(=O)(=O)c2cccc3nsnc23)c1`, the EC50 was > 60 µM (inactive), the EC90 was over 60 µM and the CC50 is over 60 µM.

As to `CCOc1ccc(-c2nnc3ccc(SCC(=O)NCc4ccco4)nn23)cc1`, the EC50 was > 60 µM (inactive), the EC90 is over 60 µM and the CC50 is over 60 µM.

As for `COc1ccc(NC(=O)C2CCCCN2S(=O)(=O)c2ccc(F)cc2)c(OC)c1` (configuration not stated), the EC50 was > 60 µM (inactive), the EC90 is over 60 µM and the CC50 was over 60 µM.

For the molecule `Cc1ccc(NC(=O)C2CC(=O)OC23CCOC(C)(C)C3)cc1` (configuration not stated), the EC50 is > 60 µM (inactive), the EC90 is over 60 µM and the CC50 was over 60 µM.

Regarding `Cc1cccc(NC(=O)C2CC(=O)OC23CCCCC3)c1` (configuration not stated), the EC50 is > 60 µM (inactive), the EC90 was over 60 µM and the CC50 is over 60 µM.

Turning to `CCOC(=O)/C=C1\SCC(=O)N1CC(=O)NC1CCCCC1`, the EC50 is > 60 µM (inactive), the EC90 was over 60 µM and the CC50 is over 60 µM.

With `CCC(C)NC(=O)C1CCCCN1S(=O)(=O)c1ccc(F)cc1` (configuration not stated), the EC50 was > 60 µM (inactive), the EC90 is over 60 µM and the CC50 is over 60 µM.

`CSc1nnc(-c2ccc(Cl)cc2Cl)o1`: the EC50 was 48.5 µM (inactive), the EC90 is over 60 µM and the CC50 was over 60 µM.

`CCc1ccc(NC(=O)CCS(=O)(=O)c2cccc3nsnc23)cc1`: the EC50 is > 60 µM (inactive), the EC90 was over 60 µM and the 50% cytotoxic concentration (CC50) was over 60 µM.

As to `CCC1CCCCN1C(=O)Nc1cccc(NC(=O)N2CCCCC2CC)c1` (configuration not stated), the EC50 was > 60 µM (inactive), the EC90 is over 60 µM and the CC50 was over 60 µM.

Turning to `Cc1ccc(NC(=O)C2=C(O)c3sccc3N(C)S2(=O)=O)cc1`, the EC50 is > 60 µM (inactive), the EC90 was over 60 µM and the CC50 is over 60 µM.

In the case of `COc1ccc(NC(=O)C2CCCCN2S(=O)(=O)c2ccc(F)cc2)cc1` (configuration not stated), the EC50 is > 60 µM (inactive), the EC90 was over 60 µM and the CC50 was over 60 µM.

Regarding `CN(C)CCNc1ncnc2c1sc1nc(N3CCOCC3)c3c(c12)CC(C)(C)SC3`, the EC50 was > 60 µM (inactive), the EC90 was over 60 µM and the CC50 was determined as 16.3 µM.

Regarding `CC1CCN(C(=O)Nc2cccc(NC(=O)N3CCC(C)CC3)c2)CC1`, the EC50 is > 60 µM (inactive), the EC90 was over 60 µM and the CC50 is over 60 µM.

For the molecule `Cc1nc2nc(-c3ccccc3)[nH]n2c(=O)c1Cc1ccccc1`, the EC50 is > 60 µM (inactive), the EC90 is over 60 µM and the CC50 is over 60 µM.

As to `CC(C)(C)OC(=O)NCCc1nnc(SCc2c(Cl)cccc2Cl)o1`, the EC50 is > 60 µM (inactive), the EC90 is over 60 µM and the CC50 was over 60 µM.

Turning to `O=C1Cn2c(nc3ccccc32)N1c1ccccc1F`, the EC50 is > 60 µM (inactive), the 90% effect concentration (EC90) was over 60 µM and the 50% cytotoxic concentration (CC50) is over 60 µM.

In the case of `O=C(CSc1ccc2nnc(-c3ccc(F)cc3)n2n1)NCc1ccco1`, the EC50 is > 60 µM (inactive), the concentration for an effect of 90% (EC90) was over 60 µM and the CC50 is over 60 µM.

As for `CC(NC(=O)c1ccc(S(=O)(=O)N(C)C)cc1)c1ccccc1` (configuration not stated), the EC50 is > 60 µM (inactive), the EC90 was over 60 µM and the cytotoxic concentration (CC50) was over 60 µM.

Turning to `COc1ccccc1NC(=O)C1CCCCN1S(=O)(=O)c1ccc(F)cc1` (configuration not stated), the EC50 was > 60 µM (inactive), the EC90 is over 60 µM and the 50% cytotoxic concentration (CC50) was over 60 µM.

`Cc1cc(NC(=O)CSc2nnc(-c3cccnc3)n2C2CCCCC2C)no1` (configuration not stated): the EC50 was > 60 µM (inactive), the EC90 was over 60 µM and the CC50 is over 60 µM.

For `CCOc1ccc(Nc2ncnc3c2cnn3-c2ccccc2)cc1`, the EC50 is > 60 µM (inactive), the EC90 is over 60 µM and the CC50 is over 60 µM.

Turning to `O=C(Nc1ccccc1)c1cc2ccccc2o1`, the EC50 was > 60 µM (inactive), the EC90 was over 60 µM and the CC50 was over 60 µM.

With `O=C(NCc1ccccc1)c1ccc(S(=O)(=O)N2CCCC2)cc1`, the EC50 is > 60 µM (inactive), the EC90 was over 60 µM and the CC50 is over 60 µM.

Consider `NC(=O)CSc1nnc2sc3ccccc3n12`, for which the EC50 was > 60 µM (inactive), the EC90 was over 60 µM and the CC50 was over 60 µM.

For `Cc1ccccc1Nc1ncnc2c1cnn2-c1ccccc1`, the EC50 is > 60 µM (inactive), the EC90 is over 60 µM and the half-maximal cytotoxic concentration (CC50) was over 60 µM.

For the molecule `O=C(C1CCCCN1S(=O)(=O)c1ccccc1)N1CCCCC1` (configuration not stated), the EC50 is > 60 µM (inactive), the EC90 is over 60 µM and the CC50 was over 60 µM.

For the molecule `COc1ccc(-n2ncc3c(N4CCc5ccccc54)ncnc32)cc1`, the EC50 was > 60 µM (inactive), the EC90 is over 60 µM and the CC50 was over 60 µM.

With `Cc1c(C(=O)Nc2ccc(Cl)cn2)oc2ccccc12`, the EC50 is > 60 µM (inactive), the EC90 was over 60 µM and the CC50 was over 60 µM.

Turning to `COc1ccc(-c2csc(NC(=O)C3CCCCN3S(=O)(=O)c3ccccc3)n2)cc1` (configuration not stated), the EC50 is > 60 µM (inactive), the EC90 is over 60 µM and the CC50 was over 60 µM.

Take `COc1ccccc1Cn1c(=O)c2ccccc2n2c(Sc3ncnc4sccc34)nnc12`: the EC50 is > 60 µM (inactive), the EC90 is over 60 µM and the CC50 was over 60 µM.

`COc1cccc(C2=NOC(C(=O)Nc3cc(C)nn3-c3ccccc3)C2)c1OC` (configuration not stated): the EC50 was > 60 µM (inactive), the EC90 is over 60 µM and the CC50 was over 60 µM.
